Legend:
Format in all cases: cell-based, Saccharomyces cerevisiae
tTA (TetR-VP16 fusion) = biological target: T1, tTA (TetR-VP16 fusion) (Escherichia coli, UniProt P04483); experiment: Orthogonality: Tet-Off GFP reporter in strain BY-TeCaOFF (microscopy); settings: 25 μM, 1 day in SC medium
T1 construct: expressed in transfected cells; host or cells: Saccharomyces cerevisiae strain BY-TeCaOFF (integrated pSIB527, CMV promoter)
Excerpt: (§1) FIG. 6. Independent regulation of fluorescent reporters, RFP and GFP, with camphor-Off and Tet-Off systems. (A) pSIB859 can be used for integrating the camphor-Off system at a single transformation. Its derivative plasmid pSIB872 carries mCherry as a reporter. (B) Plasmid pSIB498 for the Tet-Off system. Its derivative pSIB527 carries gfp as a reporter. (C)-(F) Strain BY-TeCaOFF carries both pSIB872 and pSIB527. Cell images in SC medium (C), SC with camphor (D), SC with Dox (E), and SC with camphor and Dox. The top, middle, and bottom rows represent images of RFP, GFP, and DIC, respectively. Strain BY-TeCaOFF was grown for 1 day in SC medium with the indicated compounds.
(§2) The experiments in this section were performed to examine whether the camphor-Off system was orthogonal/compatible with the Tet-Off system in a yeast strain. Firstly, we developed new two acceptor vectors: one was used for the camphor-Off switch and the other was the Tet-Off switch. […]
(§3) Cells were viewed with an Axioskop-2 microscope (Carl Zeiss, Oberkochen, Germany) equipped with an X-cite120 light source (ExFo, Ontario, Canada) and a fluorescence filter set. A 100× objective and AxioVision software were used to capture fluorescence and differential interference contrast (DIC) images.

cam-TA [1] = settings: BY-TeCaOFF
Excerpt: as §1, §2, §3

cam-TA [2] = experiment: camphor-Off switch, GFP reporter (flow cytometry) in strain camG-TA
Method: To evaluate the performance of the system, we used GFP as a reporter.
However, another strain camG-TA that was constructed by introducing the […] expression cassette into the cam-TA strain produced significant amounts of GFP (FIG. 3C). From this, we conclude that cam-TA binds to camO and can activate the transcription of the reporter gene gfp.
Subsequently, the kinetics of the system was investigated using the camG-TA strain.
Cellular fluorescence from GFP was determined using a LSRII flow cytometer (Becton Dickinson, Franklin Lakes, N.J.) equipped with 488-nm argon ion laser (blue laser) and a 530/30-filter. All samples were suspended in sterile water, and 10,000 cells were analyzed per sample. Data acquisition and analysis were performed using FACSDiva software (Becton Dickinson) and FlowJo (Tree Star, Ashland, Oreg.).

cam-TA [3] = experiment: camphor-Off system with ADE2 reporter, growth on SC-Ade
Excerpt: FIG. 4. […] The cells were 10-fold diluted in across each row.
Another gene ADE2 (SEQ ID No. 10) was used to further evaluate the camphor-Off system. Specifically, we investigated availability of the system to complement the adenine-auxotrophy in a camphor-dependent manner. […] On the other hand, another strain camA-TA, which had cam-TA differently from camA-EmV, grew in […] SC-Ade media (FIG. 4B). […] The reversion frequency is approximately 10^−3. The behavior of each strain was thoroughly consistent with the schematic model of the camphor-system (FIG. 2).

Chain of cam-TA (as listed by the source): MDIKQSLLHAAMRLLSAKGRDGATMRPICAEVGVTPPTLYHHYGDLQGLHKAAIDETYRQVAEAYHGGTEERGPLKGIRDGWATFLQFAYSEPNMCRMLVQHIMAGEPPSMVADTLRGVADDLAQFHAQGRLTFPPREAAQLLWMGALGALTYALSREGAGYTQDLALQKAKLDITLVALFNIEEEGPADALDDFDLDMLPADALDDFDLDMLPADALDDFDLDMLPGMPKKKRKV

D-Camphor
the other fluorescence (GFP, Tet-Off) on addition of camphor alone (tTA (TetR-VP16 fusion)): detected robustly
corresponding reporter protein (mCherry, camphor-Off) on addition of the drug (cam-TA [1]; 25 μM, 1 day in SC medium): drastic decrease
expression of mCherry reporter when both camphor and Dox were supplied (cam-TA [1]; camphor and Dox 25 μM each): repressed
effective concentration for the camphor-Off system (cam-TA [2]; GFP reporter, camG-TA strain): 25 µM
camphor concentration in the presence of which the GFP signal drastically decreased (cam-TA [2]; camG-TA strain in SC medium, camPr-gfp reporter): ≥ 25 µM
period over which GFP intensity went to almost the same level as that of BY4741 (cam-TA [2]; camG-TA strain in the presence of camphor): 7 h
growth of strain camA-TA on SC-Ade media that contained camphor (cam-TA [3]; 100 μM camphor, 1 day at 30° C., camPr-ADE2): hardly proliferated at all
reversion frequency (cam-TA [3]; camA-TA on SC-Ade media containing camphor): approximately 10^−3

From patent publication US10093938B2, “Regulated switch for gene expression” (The Johns Hopkins University, priority 2014, dated 2018)
